{
  "source": "patent US6914045B2",
  "about": "“Glycopeptide antibiotics” (Wyeth Holdings Corporation, priority 2001, dated 2005)",
  "experiment_in_all_cases": "in vitro antibacterial evaluation, MIC by broth dilution",
  "format_in_all_cases": "cell-based",
  "key": {"Escherichia coli": {"test_system": "Escherichia coli", "details": "18 hours at 35° C."}, "Staphylococcus sp.": {"test_system": "Staphylococcus sp.", "details": "broth dilution, 18 hours at 35° C.", "summary_of_the_method": "(§1)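 Broth dilution per NCCLS M7-A2 in Mueller-Hinton II medium, inoculum 5×10^5 CFU/mL, antibiotic range 64-0.06 μg/mL. MIC taken as lowest concentration inhibiting growth; Gram-positive panel includes recent clinical isolates resistant to methicillin, penicillin and/or vancomycin.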"}, "Streptococcus sp.": {"test_system": "Streptococcus sp.", "details": "broth dilution, 18 hours at 35° C.", "summary_of_the_method": "as §1"}, "Enterococcus sp.": {"test_system": "Enterococcus sp.", "details": "broth dilution, 18 hours at 35° C.", "summary_of_the_method": "as §1"}},
  "data": [
    {"smiles": "CC(c1ccccc1)C1NC(=O)CNC(=O)C(CO)NC(=O)C(CC2CNC(=N)N2C2OC(CO)C(O)C(O)C2O)NC(=O)C(CC2CNC(=N)N2)NC(=O)C(Cc2ccc(OC3OC(CO)C(OC4OC(COCc5ccc(OCc6ccccc6)cc5)C(O)C(O)C4O)C(O)C3O)cc2)NC1=O", "note": "(stereo not shown) [Example 246]", "values": [
      {"measurement": "MIC Escherichia coli (ATCC 25922)", "setting": "Escherichia coli", "value": 128, "unit": "µg/mL"},
      {"measurement": "MIC Escherichia coli (GC 4559)", "setting": "Escherichia coli", "value": 64, "unit": "µg/mL"},
      {"measurement": "MIC Escherichia coli (GC 4560)", "setting": "Escherichia coli", "value": 4, "unit": "µg/mL"},
      {"measurement": "MIC Coagulase Negative Staphylococcus (GC 4547)", "setting": "Staphylococcus sp.", "value": 4, "unit": "µg/mL"},
      {"measurement": "MIC Coagulase Negative Staphylococcus (GC 4548)", "setting": "Staphylococcus sp.", "value": 4, "unit": "µg/mL"},
      {"measurement": "MIC Coagulase Negative Staphylococcus (GC 4549)", "setting": "Staphylococcus sp.", "value": 4, "unit": "µg/mL"},
      {"measurement": "MIC Coagulase Negative Staphylococcus (GC 4551)", "setting": "Staphylococcus sp.", "value": 8, "unit": "µg/mL"},
      {"measurement": "MIC Coagulase Negative Staphylococcus (GC 6257)", "setting": "Staphylococcus sp.", "value": 2, "unit": "µg/mL"},
      {"measurement": "MIC Staphylococcus aureus (ATCC 29213)", "setting": "Staphylococcus sp.", "value": 4, "unit": "µg/mL"},
      {"measurement": "MIC Staphylococcus aureus (GC 1131)", "setting": "Staphylococcus sp.", "value": 8, "unit": "µg/mL"},
      {"measurement": "MIC Staphylococcus aureus (GC 3051)", "setting": "Staphylococcus sp.", "value": 4, "unit": "µg/mL"},
      {"measurement": "MIC Staphylococcus aureus (GC 3053)", "setting": "Staphylococcus sp.", "value": 4, "unit": "µg/mL"},
      {"measurement": "MIC Staphylococcus aureus (GC 4541)", "setting": "Staphylococcus sp.", "value": 4, "unit": "µg/mL"},
      {"measurement": "MIC Staphylococcus aureus (GC 4542)", "setting": "Staphylococcus sp.", "value": 4, "unit": "µg/mL"},
      {"measurement": "MIC Staphylococcus aureus (GC 4544)", "setting": "Staphylococcus sp.", "value": 8, "unit": "µg/mL"},
      {"measurement": "MIC Staphylococcus aureus (GC 4545)", "setting": "Staphylococcus sp.", "value": 4, "unit": "µg/mL"},
      {"measurement": "MIC Staphylococcus aureus-SMITH (GC 4543)", "setting": "Staphylococcus sp.", "value": 4, "unit": "µg/mL"},
      {"measurement": "MIC Staphylococcus haemolyticus (GC 4546)", "setting": "Staphylococcus sp.", "value": 4, "unit": "µg/mL"},
      {"measurement": "MIC Staphylococcus aureus (ATCC 29213)", "setting": "Staphylococcus sp.; strain ATCC 29213", "value": 4, "unit": "µg/mL"},
      {"measurement": "MIC Staphylococcus aureus (GC 1131)", "setting": "Staphylococcus sp.; strain GC 1131", "value": 8, "unit": "µg/mL"},
      {"measurement": "MIC Staphylococcus aureus (GC 3051)", "setting": "Staphylococcus sp.; strain GC 3051", "value": 4, "unit": "µg/mL"},
      {"measurement": "MIC Staphylococcus aureus (GC 3053)", "setting": "Staphylococcus sp.; strain GC 3053", "value": 4, "unit": "µg/mL"},
      {"measurement": "MIC Staphylococcus aureus (GC 4541)", "setting": "Staphylococcus sp.; strain GC 4541", "value": 4, "unit": "µg/mL"},
      {"measurement": "MIC Staphylococcus aureus (GC 4542)", "setting": "Staphylococcus sp.; strain GC 4542", "value": 4, "unit": "µg/mL"},
      {"measurement": "MIC Staphylococcus aureus-SMITH (GC 4543)", "setting": "Staphylococcus sp.; strain GC 4543", "value": 4, "unit": "µg/mL"},
      {"measurement": "MIC Staphylococcus aureus (GC 4544)", "setting": "Staphylococcus sp.; strain GC 4544", "value": 8, "unit": "µg/mL"},
      {"measurement": "MIC Staphylococcus aureus (GC 4545)", "setting": "Staphylococcus sp.; strain GC 4545", "value": 4, "unit": "µg/mL"},
      {"measurement": "MIC Staphylococcus haemolyticus (GC 4546)", "setting": "Staphylococcus sp.; strain GC 4546", "value": 4, "unit": "µg/mL"},
      {"measurement": "MIC Coagulase Negative Staphylococcus (GC 4547)", "setting": "Staphylococcus sp.; strain GC 4547", "value": 4, "unit": "µg/mL"},
      {"measurement": "MIC Coagulase Negative Staphylococcus (GC 4548)", "setting": "Staphylococcus sp.; strain GC 4548", "value": 4, "unit": "µg/mL"},
      {"measurement": "MIC Coagulase Negative Staphylococcus (GC 4549)", "setting": "Staphylococcus sp.; strain GC 4549", "value": 4, "unit": "µg/mL"},
      {"measurement": "MIC Coagulase Negative Staphylococcus (GC 4551)", "setting": "Staphylococcus sp.; strain GC 4551", "value": 8, "unit": "µg/mL"},
      {"measurement": "MIC Coagulase Negative Staphylococcus (GC 6257)", "setting": "Staphylococcus sp.; strain GC 6257", "value": 2, "unit": "µg/mL"},
      {"measurement": "MIC Streptococcus agalactiae (GC 4564)", "setting": "Streptococcus sp.", "value": 2, "unit": "µg/mL"},
      {"measurement": "MIC Streptococcus pneumoniae (ATCC 6301)", "setting": "Streptococcus sp.", "value": 2, "unit": "µg/mL"},
      {"measurement": "MIC Streptococcus pneumoniae (GC 1894)", "setting": "Streptococcus sp.", "value": 0.5, "unit": "µg/mL"},
      {"measurement": "MIC Streptococcus pneumoniae (GC 4565)", "setting": "Streptococcus sp.", "value": 2, "unit": "µg/mL"},
      {"measurement": "MIC Streptococcus pyogenes (GC 4563)", "setting": "Streptococcus sp.", "value": 4, "unit": "µg/mL"},
      {"measurement": "MIC Streptococcus pneumoniae (ATCC 6301)", "setting": "Streptococcus sp.; inoculum 5×10^5 CFU/mL, strain ATCC 6301", "value": 2, "unit": "µg/mL"},
      {"measurement": "MIC Streptococcus pneumoniae (GC 1894)", "setting": "Streptococcus sp.; inoculum 5×10^5 CFU/mL, strain GC 1894", "value": 0.5, "unit": "µg/mL"},
      {"measurement": "MIC Streptococcus pyogenes (GC 4563)", "setting": "Streptococcus sp.; inoculum 5×10^5 CFU/mL, strain GC 4563", "value": 4, "unit": "µg/mL"},
      {"measurement": "MIC Streptococcus agalactiae (GC 4564)", "setting": "Streptococcus sp.; inoculum 5×10^5 CFU/mL, strain GC 4564", "value": 2, "unit": "µg/mL"},
      {"measurement": "MIC Streptococcus pneumoniae (GC 4565)", "setting": "Streptococcus sp.; inoculum 5×10^5 CFU/mL, strain GC 4565", "value": 2, "unit": "µg/mL"},
      {"measurement": "MIC Enterococcus avium (GC 4558)", "setting": "Enterococcus sp.", "value": 8, "unit": "µg/mL"},
      {"measurement": "MIC Enterococcus faecalis (ATCC 29212)", "setting": "Enterococcus sp.", "value": 16, "unit": "µg/mL"},
      {"measurement": "MIC Enterococcus faecalis (GC 2242)", "setting": "Enterococcus sp.", "value": 16, "unit": "µg/mL"},
      {"measurement": "MIC Enterococcus faecalis (GC 2691)", "setting": "Enterococcus sp.", "value": 32, "unit": "µg/mL"},
      {"measurement": "MIC Enterococcus faecalis (GC 3059)", "setting": "Enterococcus sp.", "value": 32, "unit": "µg/mL"},
      {"measurement": "MIC Enterococcus faecalis (GC 4552)", "setting": "Enterococcus sp.", "value": 16, "unit": "µg/mL"},
      {"measurement": "MIC Enterococcus faecalis (GC 4553)", "setting": "Enterococcus sp.", "value": 8, "unit": "µg/mL"},
      {"measurement": "MIC Enterococcus faecalis (GC 4554)", "setting": "Enterococcus sp.", "value": 32, "unit": "µg/mL"},
      {"measurement": "MIC Enterococcus faecalis (GC 6189)", "setting": "Enterococcus sp.", "value": 16, "unit": "µg/mL"},
      {"measurement": "MIC Enterococcus faecium (GC 2243)", "setting": "Enterococcus sp.", "value": 16, "unit": "µg/mL"},
      {"measurement": "MIC Enterococcus faecium (GC 4556)", "setting": "Enterococcus sp.", "value": 16, "unit": "µg/mL"},
      {"measurement": "MIC Enterococcus faecium (GC 4557)", "setting": "Enterococcus sp.", "value": 4, "unit": "µg/mL"},
      {"measurement": "MIC Enterococcus faecalis (ATCC 29212)", "setting": "Enterococcus sp.; strain ATCC 29212", "value": 16, "unit": "µg/mL"},
      {"measurement": "MIC Enterococcus faecium (GC 2243)", "setting": "Enterococcus sp.; strain GC 2243", "value": 16, "unit": "µg/mL"},
      {"measurement": "MIC Enterococcus faecalis (GC 4552)", "setting": "Enterococcus sp.; strain GC 4552", "value": 16, "unit": "µg/mL"},
      {"measurement": "MIC Enterococcus faecalis (GC 4553)", "setting": "Enterococcus sp.; strain GC 4553", "value": 8, "unit": "µg/mL"},
      {"measurement": "MIC Enterococcus faecalis (GC 4554)", "setting": "Enterococcus sp.; strain GC 4554", "value": 32, "unit": "µg/mL"},
      {"measurement": "MIC Enterococcus faecium (GC 4556)", "setting": "Enterococcus sp.; strain GC 4556", "value": 16, "unit": "µg/mL"},
      {"measurement": "MIC Enterococcus faecium (GC 4557)", "setting": "Enterococcus sp.; strain GC 4557", "value": 4, "unit": "µg/mL"},
      {"measurement": "MIC Enterococcus avium (GC 4558)", "setting": "Enterococcus sp.; strain GC 4558", "value": 8, "unit": "µg/mL"},
      {"measurement": "MIC Enterococcus faecalis (GC 6189)", "setting": "Enterococcus sp.; strain GC 6189", "value": 16, "unit": "µg/mL"},
      {"measurement": "MIC Enterococcus faecalis (GC 2242)", "setting": "Enterococcus sp.; inoculum 5×10^5 CFU/mL, strain GC 2242", "value": 16, "unit": "µg/mL"},
      {"measurement": "MIC Enterococcus faecalis (GC 2691)", "setting": "Enterococcus sp.; inoculum 5×10^5 CFU/mL, strain GC 2691", "value": 32, "unit": "µg/mL"},
      {"measurement": "MIC Enterococcus faecalis (GC 3059)", "setting": "Enterococcus sp.; inoculum 5×10^5 CFU/mL, strain GC 3059", "value": 32, "unit": "µg/mL"}
    ]}
  ]
}
